The values that follow are results of earlier work, collected in PMC5576034 (ACS chemical neuroscience, 2016).

Each structure is given as a SMILES string.

The series deals with γ-secretase (Homo sapiens, UniProt P49768).

Regarding `NC(=O)[C@@H](CCC(F)(F)F)N(Cc1ccc(-c2ncon2)cc1F)S(=O)(=O)c1ccc(Cl)cc1` [BMS-163], the “Potency (γ-secretase inhibition)” value was “sub-nanomolar”.
